Columns and labels:
Assay type in all cases: physicochemical
[1] = accelerated aging test of colored textile behind sol-gel filter layer (NF EN ISO 105-B2)
Procedure: A sol-gel deposited layer is produced on a glass slide under the same conditions as example 1 above, with a starting 5 mg/ml solution of pyrene-1-carboxylic.
This sample is used as filter affixed to a colored textile.
A glass slide not treated with this deposited layer is also affixed to another sample of the same colored textile for the purposes of reference sample.
The two samples are exposed to an accelerated aging test in a Suntest CPS chamber from Atlas. The aging conditions are as follows and in accordance with the standard NF EN ISO 105-B2: irradiance at 550 W/m^2, xenon arc lamp equipped with a “sheet glass” filter which cuts off the UV radiation below 310 nm, exposure time 72 h.

[2] = comparative accelerated aging test of pyrene derivatives in silica sol-gel layer; details: 0.5 mg/ml, 620 W/m^2, 24 h, black body 55° C, versus pyrenesulfonic, pyreneboronic, pyreneacetic
Procedure: A silica sol-gel solution as defined in example 1 is prepared.
At the same time, four aqueous solutions respectively comprising pyrenecarboxylic, pyrenesulfonic, pyreneboronic and pyreneacetic, at 0.5 mg/ml, with one molar equivalent of sodium hydroxide, are prepared.
A volume of each aqueous solution thus obtained is mixed with an equivalent volume of the sol-gel solution: each mixture obtained is subsequently deposited by “knife coating” on a microscope slide transparent to UV-A radiation.
After drying in ambient air, these slides are subjected to an accelerated aging test in a Suntest CPS chamber from Atlas.
The aging conditions are as follows: irradiance at 620 W/m^2, xenon arc lamp equipped with a “sheet glass” filter which cuts off the UV radiation below 310 nm, exposure time 24 h. The temperature for regulating the black body is 55° C.
FIG. 3 reports the absorption spectra of the different pyrene derivatives described above as a function of time.

[3] = stability toward solar irradiation (general statement); details: compared with conventional UV stabilizers / substituted benzotriazoles
[4] = accelerated aging test (Suntest CPS) of silica sol-gel deposited layer, 620 W/m^2, 24 h; details: 0.5 mg/ml solution, xenon arc 620 W/m^2, cut-off 310 nm
Procedure: A silica sol-gel solution is formed by the hydrolysis of a silicon alkoxide (tetraethoxysilane, CAS No. 78-10-4) in the presence of ethanol and hydrochloric acid.
A 0.5 mg/ml aqueous pyrene-1-carboxylic solution is formed with a molar equivalent of sodium hydroxide.
One volume of the pyrene-1-carboxylic solution is mixed with an equivalent volume of the sol-gel solution: the mixture is deposited by “knife coating” on a microscope slide transparent to UV-A radiation.
After drying in ambient air, this slide is subjected to an accelerated aging test in a Suntest CPS chamber from Atlas.
The aging conditions are as follows: irradiance at 620 W/m^2, xenon arc lamp equipped with a “sheet glass” filter which cuts off the UV radiation below 310 nm, exposure time 24 h.
FIG. 1 reports the UV transmission spectra of the silica sol-gel deposited layer in which the pyrene-1-carboxylic is incorporated, before/after exposure.
The “light” stability of the pyrene-1-carboxylic compound is thus confirmed.

[5] = accelerated aging test of polyurethane varnish deposited layer, 550 W/m^2, 72 h; details: 50 mg per g polyurethane solution
Procedure: A curing agent is added to a solution of polyurethane (70% by weight) in a xylene/toluene mixture.
A molecule of nonfunctionalized pyrene (CAS No. 129000) is added in a proportion of 50 mg of pyrene per gram of polyurethane solution.
The mixture is deposited by “knife coating” on a glass slide transparent to UV-A radiation.
After drying in ambient air, this slide is subjected to an accelerated aging test in a Suntest CPS chamber from Atlas. The aging conditions are as follows: irradiance at 550 W/m^2, xenon arc lamp equipped with a “sheet glass” filter which cuts off the UV radiation below 310 nm, exposure time 72 h.
The pyrene not in accordance with the invention is obviously not stable to light.

SMILES	color change of the sol-gel deposited layer after exposure ([1]; 5 mg/ml solution, xenon arc 550 W/m^2, 72 h)	degradation grade on the scale of the blues of the protected colored textile ([1]; scale of 8 levels, 1 most degraded, 8 least degraded, 550 W/m^2, 72 h, untreated reference grade 1)	stability over time of absorption peak under UV [2]	stability toward solar irradiation / radiation [3]	UV/visible transmission properties of the coating before/after exposure [4]	UV/vis transmission properties of the coating before/after exposure [5]
O=C(O)c1ccc2ccc3cccc4ccc1c2c34 [pyrene-1-carboxylic, pyrene-1-carboxylic acid]	has not changed in color	4-5	best stability over time	equivalent to that of substituted benzotriazoles	retained	–
c1cc2ccc3cccc4ccc(c1)c2c34 [pyrene]	–	–	–	–	–	very significantly degraded
